Test system: MUC5AC transcription
Assay: MUC5AC promoter-luciferase reporter assay (pMUC5AC3.7luc) in human epithelial cells
Assay type: cell-based
Method: The luciferase assay was performed as follows: expression plasmids fp38α(AF) and fp38β(AF) were previously described in Shuto, et al. (2001) Proc. Natl, Acad. Sci. U.S.A. 98, pages 8774-9. The expression plasmids p110, p85α, Akt KD, and Akt WT were provided by D. Stokoe (University of California, San Francisco). The reporter construct MUC5AC contained 3.7-kb 5′-flanking region of the human MUC5AC mucin gene in a luciferase reporter vector pGL3 (Li, et al. 1998, J. Biol. Chem. 273, 68126820). Transient transfections of cells were performed in triplicate with Trans IT-LT1 (Panvera, Madison, WT) following the manufacturer's instructions. Forty-two hours after transfection, the cells were treated with NTHi for 4 h and then harvested for use in the luciferase assay. For experiments with inhibitors, HM3 cells stably transfected with MUC5AC-luciferase plasmid were pretreated with inhibitors for 1-2 h, then treated with NTHi for 4 h and harvested for luciferase assays. Luciferase assays were performed on a Monolight 3010 luminometer for 15 s (Analytical Luminescence, San Diego, Calif.). The NTHi-dependent fold induction was calculated relative to the luciferase light units obtained in the absence of NTHi treatment. The normalized luciferase activity was thus expressed as relative luciferase activity (fold induction).

| Compound | effect on NTHi-induced MUC5AC transcription (luciferase activity) (HM3 cells stably transfected with pMUC5AC3.7luc, pretreated with inhibitor 1-2 h, then NTHi SCF 4 h) | effect on NTHi-induced MUC5AC transcription in cells already pretreated with wortmannin (HM3 cells stably transfected with pMUC5AC3.7luc, wortmannin pretreatment first) | effect on MUC5AC transcription induced by LPS from S. typhimurium (LPS pretreated with various concentrations of polymyxin B 10 min at 4° C., HM3 pMUC5AC3.7luc cells, 4 h) | effect on MUC5AC transcription induced by NTHi soluble cytoplasmic fraction (SCF pretreated with various concentrations of polymyxin B for 10 min, HM3 pMUC5AC3.7luc cells) |
| --- | --- | --- | --- | --- |
| C[S+]([O-])c1ccc(-c2nc(-c3ccncc3)c(-c3ccc(F)cc3)[nH]2)cc1 (stereo not shown) [SB203580] | inhibited MUC5AC induction in response to NTHi cytoplasmic proteins in a dose-dependent manner | still capable of inhibiting NTHi-induced MUC5AC transcription |  |  |
| Polymyxin B |  |  | significantly reduced MUC5AC transcription | no significant reduction in NTHi-induced MUC5AC transcription |

— patent publication US20020151491A1, “Composition and method for treating the over-production of mucin in diseases such as otitis media using an inhibitor of MUC5AC” (priority 2000, published 2002)
